# Legend:
# Assay type in all cases: functional
# [1] = test system: Mycobacterium tuberculosis; assay: Antitubercular activity against isoniazid/rifampicin resistant Mycobacterium tuberculosis 12525 incubated for 7 days by alamar blue assay; settings: Mycobacterium tuberculosis, 12525, 168 h; time 7 day
# [2] = test system: Mycobacterium tuberculosis; assay: Antitubercular activity against isoniazid/rifampicin resistant Mycobacterium tuberculosis 16833 incubated for 7 days by alamar blue assay; settings: Mycobacterium tuberculosis, 16833, 168 h; time 7 day
# [3] = test system: Mycobacterium tuberculosis; assay: Antitubercular activity against isoniazid/rifampicin resistant Mycobacterium tuberculosis 16995 incubated for 7 days by alamar blue assay; settings: Mycobacterium tuberculosis, 16995, 168 h; time 7 day
# [4] = test system: Mycobacterium tuberculosis; assay: Antitubercular activity against isoniazid/streptomycin/rifampicin/ethambutol/p-aminosalicylate/rifabutin/ofloxacin resistant Mycobacterium tuberculosis 13946 incubated for 7 days by alamar blue assay; settings: Mycobacterium tuberculosis, 13946, 168 h; time 7 day
# [5] = test system: Mycobacterium tuberculosis; assay: Antitubercular activity against isoniazid/streptomycin/rifampicin/ethambutol/p-aminosalicylate/prothionamide/capreomycin resistant Mycobacterium tuberculosis 14862 incubated for 7 days by alamar blue assay; settings: Mycobacterium tuberculosis, 14862, 168 h; time 7 day
SMILES,MIC [1] [µg/mL],MIC [2] [µg/mL],MIC [3] [µg/mL],MIC [4] [µg/mL],MIC [5] [µg/mL]
C=CCSc1nc2c(c(=O)[nH]1)C(c1ccc(OC)cc1[N+](=O)[O-])CC(=O)N2 (stereo not given),2,1,2,2,1
CCCSc1nc2c(c(=O)[nH]1)[C@@H](c1ccc(OC)cc1[N+](=O)[O-])CC(=O)N2,0.125,0.06,0.125,0.125,0.059
CCCSc1nc2c(c(=O)[nH]1)C(c1ccc(OC)cc1O)CC(=O)N2 (stereo not given),4,1,4,2,4
CCCSc1nc2c(c(=O)[nH]1)[C@H](c1ccc(OC)cc1)CC(=O)N2,,,,,12.8
CCC[S+]([O-])c1nc2c(c(=O)[nH]1)[C@@H](c1ccc(OC)cc1[N+](=O)[O-])CC(=O)N2 (stereo not given in full),,,,,> 32
C=CCSc1nc2c(c(=O)[nH]1)C(c1ccc(OC)cc1O)CC(=O)N2 (stereo not given),16,8,32,8,13.3
CCCSc1nc2c(c(=O)[nH]1)C(c1ccc(OCC)cc1)CC(=O)N2 (stereo not given),1,0.5,1,2,0.25
CCCS(=O)(=O)c1nc2c(c(=O)[nH]1)[C@H](c1ccc(OC)cc1)CC(=O)N2,,,,,> 32
CCCOc1ccc(C2CC(=O)Nc3nc(SCCC)[nH]c(=O)c32)cc1 (stereo not given),2,0.5,2,1,2
CCCS(=O)(=O)c1nc2c(c(=O)[nH]1)[C@@H](c1ccc(OC)cc1[N+](=O)[O-])CC(=O)N2,,,,,> 32
CCCSc1nc2c(c(=O)[nH]1)C(c1ccc(OC)c(N)c1)CC(=O)N2 (stereo not given),8,4,8,16,4
CCCSc1nc2c(c(=O)[nH]1)C(c1ccc(OC(C)C)cc1)CC(=O)N2 (stereo not given),4,1,2,1,2
C=CCSc1nc2c(c(=O)[nH]1)C(c1ccc(OC)c(O)c1)CC(=O)N2 (stereo not given),8,4,16,4,15.6
CCCSc1nc2c(c(=O)[nH]1)[C@@H](c1ccc(OC)cc1)CC(=O)N2,0.06,0.06,0.125,0.125,0.06
CCCS(=O)(=O)c1nc2c(c(=O)[nH]1)[C@H](c1ccc(OC)cc1[N+](=O)[O-])CC(=O)N2,,,,,> 32
C=CCSc1nc2c(c(=O)[nH]1)C(c1ccc(OC)cc1)CC(=O)N2 (stereo not given),2,1,2,1,1
CCCCSc1nc2c(c(=O)[nH]1)C(c1ccc(OC)cc1)CC(=O)N2 (stereo not given),2,1,2,2,1
CCC[S+]([O-])c1nc2c(c(=O)[nH]1)[C@@H](c1ccc(OC)cc1)CC(=O)N2 (stereo not given in full),,,,,> 32
CCC[S+]([O-])c1nc2c(c(=O)[nH]1)[C@H](c1ccc(OC)cc1[N+](=O)[O-])CC(=O)N2 (stereo not given in full),,,,,> 32
CCCSc1nc2c(c(=O)[nH]1)[C@H](c1ccc(OC)cc1[N+](=O)[O-])CC(=O)N2,,,,,13.4
CCCOc1ccc(C2CC(=O)Nc3nc(SCCC)[nH]c(=O)c32)c(O)c1 (stereo not given),8,2,8,8,2
C=CCSc1nc2c(c(=O)[nH]1)C(c1ccc(OCC)cc1)CC(=O)N2 (stereo not given),4,4,4,4,1
CCCSc1nc2c(c(=O)[nH]1)C(c1ccc(OC)c(O)c1)CC(=O)N2 (stereo not given),8,4,8,4,8
C=CCSc1nc2c(c(=O)[nH]1)C(c1ccc(OCCC)cc1)CC(=O)N2 (stereo not given),4,1,4,1,4
CCC[S+]([O-])c1nc2c(c(=O)[nH]1)[C@H](c1ccc(OC)cc1)CC(=O)N2 (stereo not given in full),,,,,> 32
CCCS(=O)(=O)c1nc2c(c(=O)[nH]1)[C@@H](c1ccc(OC)cc1)CC(=O)N2,,,,,> 32
CCCSc1nc2c(c(=O)[nH]1)C(c1ccc(OC)cc1[N+](=O)[O-])CC(=O)N2 (racemic),0.5,0.25,0.5,1,0.25
CCCSc1nc2c(c(=O)[nH]1)C(c1ccc(OC)cc1)CC(=O)N2 (racemic),0.5,0.25,0.5,0.25,0.25
NNC(=O)c1ccncc1 [ISONIAZID],> 10,> 10,> 10,> 10,> 10
CO[C@H]1/C=C/O[C@@]2(C)Oc3c(C)c(O)c4c(O)c(c(/C=N/N5CCN(C)CC5)c(O)c4c3C2=O)NC(=O)/C(C)=C\C=C\[C@H](C)[C@H](O)[C@@H](C)[C@@H](O)[C@@H](C)[C@H](OC(C)=O)[C@@H]1C [RIFAMPIN],> 10,> 10,> 10,> 10,> 10

# From ChEMBL document CHEMBL5584339, “Design, Synthesis, and Evaluation of the Antitubercular Activity of 5-Phenyl Substituted-5, 6-dihydropyrido[2, 3-d]pyrimidine-4, 7(3H, 8H)-dione Compounds” (J Med Chem, 2024)
